According to BigSolDB 2.1:

CC1=NN(c2ccccc2)C(=O)C1
solubility (mole fraction)
Settings | 273.15 K | 278.15 K | 283.15 K | 288.15 K | 293.15 K | 298.15 K | 303.15 K | 308.15 K | 313.15 K
in acetonitrile | 0.00554 | 0.00717 | 0.0092 | 0.0116 | 0.0144 | 0.018 | 0.0218 | 0.0265 | 0.0314
in ethanol | 0.0172 | 0.0197 | 0.0226 | 0.0253 | 0.0285 | 0.0321 | 0.0358 | 0.0397 | 0.0445
in ethyl acetate | 0.0152 | 0.0173 | 0.0196 | 0.0223 | 0.0253 | 0.0284 | 0.0323 | 0.0368 | 0.0419
in methanol | 0.0108 | 0.013 | 0.0153 | 0.0179 | 0.0208 | 0.0238 | 0.0274 | 0.0312 | 0.0354
in n-propanol | 0.0199 | 0.0222 | 0.0249 | 0.028 | 0.0317 | 0.0353 | 0.0393 | 0.0433 | 0.0472
